Data: publication PMC5485613, “A novel TRPM8 agonist relieves dry eye discomfort” (BMC Ophthalmology, 2017)

Key:
[1] = tested on: TRPM8-sensory neurons; assay: Calcium imaging of primary sensory neurons from Trpm8 EGFP mice; format: cell-based, mouse; details: C3 10 μM
Protocol: Calcium imaging was used to test the C3 selectivity on TRPM8-sensory neurons. Trpm8 ^+/EGFPmice were gifted by Dr. Yu-Qing Cao, Pain Center of Washington University in Saint Louis, School of Medicine, Missouri. Trigeminal ganglions and dorsal root ganglions from 4 to 5 weeks old mice were collected after CO2 euthanasia and digested for 30–40 min before plated on cover slips (8 mm), which were coated with poly-D-lysine for 40 min before use. Cover slips were gently washed with culture media to remove myelin after incubating for 35–40 min. Calcium imaging was done after incubation overnight at 37 °C, 5% CO2. Neurons were loaded with Fura-2 AM™ (Molecular Probes) for 30 min at room temperature. After washing and recovery, neurons were imaged at 340 and 380 nm excitation to detect free calcium influx. An increase of 50% of the 340/380 ratio was considered as the response threshold which were measured under blinded conditions for genotypes. Compounds were applied to the bath and calcium response was acquired by an inverted Nikon fluorescence microscope with a CoolSnap HQ2 CCD camera (Photometrics, Tucson, AZ). Data was quantified offline with the Nikon-NIS program.

[2] = tested on: dry eye mice; assay: Mouse dry eye model (extraorbital lacrimal gland removal): tear volume, blinking, corneal abrasion; format: in vivo; details: for Tear secretion (phenol-red thread wetting): mean ± SEM
Protocol: C57BL/6 J wild-type mice were purchased from Jackson Laboratory (Stock No. 000664). Adult male mice were anesthetized with xylazine ([…]) and ketamine ([…]) mixture and incisions of 5 mm were made in the skin between the eye and the ear, both extraorbital lacrimal glands were gently isolated by forceps and removed. As mouse has three pairs of lacrimal glands, removing the extraorbital ones will induce partially tear secretion deficiency, but still have other tear sources to be triggered. Sham mice received the same procedure without gland removal. Skin was sutured with 6–0 black monofilament nylon (Ethilon from Ethicon, Inc.). All mice received antibiotics (100 μL Enroflox™, intramuscular daily) and topical analgesia (2% lidocaine gel) for 2 days postoperative. Behavioral assays were done between 2 and 4 weeks after the surgery.
Tear volume was measured with phenol-red cotton threads (Zone-Quick; Showa Yakuhin Kako CO., Ltd., Tokyo, Japan) as described. The threads were held with forceps and applied to the lateral canthus for 30 s. Immediately afterwards the wetting of the thread was read in mm under a dissection microscope. Corneal abrasion was assessed under cobalt blue light after application of 0.5 μl of 0.25% fluorescein sodium (Bausch & Lomb Inc. Tampa, FL 33637). Grades of abrasion were classified with a grading system that is based on area of corneal staining. Grouping was blinded to the observers. Results were grouped according to the treatments after analysis.
To determine if C3 affected tear secretion, we tested its effect in mice. Mice were held firmly and 2 μL of C3 or vehicle was wiped gently on eyelid by pipette from nasal side to bitemporal. Tear secretion was increased by C3 in sham-operated animals and in mice in which the extraorbital lacrimal glands were surgically removed (Fig. 4a). […] The positive results in an animal model of DED justified further studies in human subjects.

[3] = sham group or dry eye mouse model, single administration

For `CCCCCCCCCP(=O)(C(C)C)C(C)C` [C3, 1-diisopropylphosphorylnonane], the “calcium entry in TRPM8 EGFP/+ sensory neurons” value [1] was “activates calcium entry”, the “Tear secretion (phenol-red thread wetting)” value ([2]; dry eye mice, n = 6, 2 μL wiped on eyelid) was 1.3 ± 0.4 mm and the Spontaneous blinking [2, 3] was “not affected”. The corneal abrasion [2, 3] was “not affected” and the “Tear secretion (phenol-red thread wetting)” value ([2]; sham group, n = 5, 2 μL wiped on eyelid) was 5.4 ± 0.5 mm.
